# Results: ChEMBL document CHEMBL1212917, “Substituted E-3-(3-indolylmethylene)-1,3-dihydroindol-2-ones with antitumor activity. In depth study of the effect on growth of breast cancer cells” (2010)
# Test system: NSCLC
# Assay: Growth inhibition of human NSCLC cells after 48 hrs
# Format: functional
# Conditions: not given
SMILES,GI50 [µM],LC50 [µM],TGI [µM]
O=C1Nc2cccc(Cl)c2/C1=C\c1c(Cl)[nH]c2c1ccc1ccccc12,9.55,72.4,28.2
CN(C)c1ccc2[nH]c(Cl)c(/C=C3/C(=O)Nc4ccc(Cl)cc43)c2c1,2.57,46.8,–
COc1cc2c(/C=C3/C(=O)N(C)c4ccc(O)cc43)c[nH]c2cc1C,6.03,91.2,21.9
Cc1cc2c(cc1O)/C(=C\c1c(Cl)[nH]c3c1ccc1ccccc13)C(=O)N2,7.94,–,30.2
COc1cc2c(/C=C3/C(=O)Nc4cc(Cl)ccc43)c(Cl)[nH]c2cc1C,0.43,52.5,–
CN(C)c1ccc2[nH]c(Cl)c(/C=C3/C(=O)N(C)c4ccc(O)cc43)c2c1,6.61,85.1,46.8
COc1cc2c(cc1C)NC(=O)/C2=C/c1c(Cl)[nH]c2c1ccc1ccccc12,–,47.9,–

# Test system: not listed separately
# Assay: Growth inhibition of human renal cancer cells after 48 hrs
# Format: functional
# Conditions: Cancer cell lines
SMILES,GI50 [µM],TGI [µM]
O=C1Nc2cccc(Cl)c2/C1=C\c1c(Cl)[nH]c2c1ccc1ccccc12,8.91,23.4
CN(C)c1ccc2[nH]c(Cl)c(/C=C3/C(=O)Nc4ccc(Cl)cc43)c2c1,1.78,–
COc1cc2c(/C=C3/C(=O)N(C)c4ccc(O)cc43)c[nH]c2cc1C,5.89,28.2
Cc1cc2c(cc1O)/C(=C\c1c(Cl)[nH]c3c1ccc1ccccc13)C(=O)N2,8.71,33.1
COc1cc2c(/C=C3/C(=O)Nc4cc(Cl)ccc43)c(Cl)[nH]c2cc1C,0.23,–
CN(C)c1ccc2[nH]c(Cl)c(/C=C3/C(=O)N(C)c4ccc(O)cc43)c2c1,4.37,31.6

# Same assay, conditions: Cancer cell lines, read-out: LC50 (the source's name)
row,SMILES,CC50 [µM]
1,O=C1Nc2cccc(Cl)c2/C1=C\c1c(Cl)[nH]c2c1ccc1ccccc12,56.2
2,CN(C)c1ccc2[nH]c(Cl)c(/C=C3/C(=O)Nc4ccc(Cl)cc43)c2c1,29.5
3,COc1cc2c(/C=C3/C(=O)N(C)c4ccc(O)cc43)c[nH]c2cc1C,93.3
4,Cc1cc2c(cc1O)/C(=C\c1c(Cl)[nH]c3c1ccc1ccccc13)C(=O)N2,75.9
5,COc1cc2c(/C=C3/C(=O)Nc4cc(Cl)ccc43)c(Cl)[nH]c2cc1C,46.8
6,CN(C)c1ccc2[nH]c(Cl)c(/C=C3/C(=O)N(C)c4ccc(O)cc43)c2c1,87.1

# Test system: not listed separately
# Assay: Growth inhibition of human melanoma cells after 48 hrs
# Format: functional
# Conditions: Melanoma cell
SMILES,GI50 [µM],TGI [µM]
O=C1Nc2cccc(Cl)c2/C1=C\c1c(Cl)[nH]c2c1ccc1ccccc12,4.57,19.1
CN(C)c1ccc2[nH]c(Cl)c(/C=C3/C(=O)Nc4ccc(Cl)cc43)c2c1,2.69,–
COc1cc2c(/C=C3/C(=O)N(C)c4ccc(O)cc43)c[nH]c2cc1C,3.24,15.1
Cc1cc2c(cc1O)/C(=C\c1c(Cl)[nH]c3c1ccc1ccccc13)C(=O)N2,6.46,20.9
COc1cc2c(/C=C3/C(=O)Nc4cc(Cl)ccc43)c(Cl)[nH]c2cc1C,0.23,–
CN(C)c1ccc2[nH]c(Cl)c(/C=C3/C(=O)N(C)c4ccc(O)cc43)c2c1,4.57,26.3

# Same assay, conditions: Melanoma cell, read-out: LC50 (the source's name)
row,SMILES,CC50 [µM]
1,O=C1Nc2cccc(Cl)c2/C1=C\c1c(Cl)[nH]c2c1ccc1ccccc12,46.8
2,CN(C)c1ccc2[nH]c(Cl)c(/C=C3/C(=O)Nc4ccc(Cl)cc43)c2c1,37.1
3,COc1cc2c(/C=C3/C(=O)N(C)c4ccc(O)cc43)c[nH]c2cc1C,66.1
4,Cc1cc2c(cc1O)/C(=C\c1c(Cl)[nH]c3c1ccc1ccccc13)C(=O)N2,57.5
5,COc1cc2c(/C=C3/C(=O)Nc4cc(Cl)ccc43)c(Cl)[nH]c2cc1C,35.5
6,CN(C)c1ccc2[nH]c(Cl)c(/C=C3/C(=O)N(C)c4ccc(O)cc43)c2c1,66.1

# Test system: not listed separately
# Assay: Growth inhibition of human prostate cancer cells after 48 hrs
# Format: functional
# Conditions: Cancer cell lines
SMILES,GI50 [µM],TGI [µM]
O=C1Nc2cccc(Cl)c2/C1=C\c1c(Cl)[nH]c2c1ccc1ccccc12,10.2,31.6
CN(C)c1ccc2[nH]c(Cl)c(/C=C3/C(=O)Nc4ccc(Cl)cc43)c2c1,2.45,–
COc1cc2c(/C=C3/C(=O)N(C)c4ccc(O)cc43)c[nH]c2cc1C,3.55,15.8
Cc1cc2c(cc1O)/C(=C\c1c(Cl)[nH]c3c1ccc1ccccc13)C(=O)N2,–,26.3
COc1cc2c(/C=C3/C(=O)Nc4cc(Cl)ccc43)c(Cl)[nH]c2cc1C,0.22,–
CN(C)c1ccc2[nH]c(Cl)c(/C=C3/C(=O)N(C)c4ccc(O)cc43)c2c1,12.9,–
O=C1Nc2ccc(Cl)cc2/C1=C\c1c(Cl)[nH]c2c1ccc1ccccc12,0.38,–

# Same assay, conditions: Cancer cell lines, read-out: LC50 (the source's name)
row,SMILES,CC50 [µM]
1,O=C1Nc2cccc(Cl)c2/C1=C\c1c(Cl)[nH]c2c1ccc1ccccc12,63.1
2,CN(C)c1ccc2[nH]c(Cl)c(/C=C3/C(=O)Nc4ccc(Cl)cc43)c2c1,46.8
3,Cc1cc2c(cc1O)/C(=C\c1c(Cl)[nH]c3c1ccc1ccccc13)C(=O)N2,74.1
4,COc1cc2c(/C=C3/C(=O)Nc4cc(Cl)ccc43)c(Cl)[nH]c2cc1C,41.7

# Test system: not listed separately
# Assay: Growth inhibition of human Ovarian cancer cells after 48 hrs
# Format: functional
# Conditions: Cancer cell lines
SMILES,GI50 [µM],TGI [µM]
O=C1Nc2cccc(Cl)c2/C1=C\c1c(Cl)[nH]c2c1ccc1ccccc12,2.51,13.2
CN(C)c1ccc2[nH]c(Cl)c(/C=C3/C(=O)Nc4ccc(Cl)cc43)c2c1,3.31,–
COc1cc2c(/C=C3/C(=O)N(C)c4ccc(O)cc43)c[nH]c2cc1C,5.62,31.6
Cc1cc2c(cc1O)/C(=C\c1c(Cl)[nH]c3c1ccc1ccccc13)C(=O)N2,9.12,46.8
COc1cc2c(/C=C3/C(=O)Nc4cc(Cl)ccc43)c(Cl)[nH]c2cc1C,0.28,–
CN(C)c1ccc2[nH]c(Cl)c(/C=C3/C(=O)N(C)c4ccc(O)cc43)c2c1,8.32,55

# Same assay, conditions: Cancer cell lines, read-out: LC50 (the source's name)
row,SMILES,CC50 [µM]
1,O=C1Nc2cccc(Cl)c2/C1=C\c1c(Cl)[nH]c2c1ccc1ccccc12,57.5
2,CN(C)c1ccc2[nH]c(Cl)c(/C=C3/C(=O)Nc4ccc(Cl)cc43)c2c1,41.7
3,COc1cc2c(/C=C3/C(=O)N(C)c4ccc(O)cc43)c[nH]c2cc1C,95.5
4,Cc1cc2c(cc1O)/C(=C\c1c(Cl)[nH]c3c1ccc1ccccc13)C(=O)N2,87.1
5,COc1cc2c(/C=C3/C(=O)Nc4cc(Cl)ccc43)c(Cl)[nH]c2cc1C,49
6,CN(C)c1ccc2[nH]c(Cl)c(/C=C3/C(=O)N(C)c4ccc(O)cc43)c2c1,95.5

# Test system: not listed separately
# Assay: Growth inhibition of human CNS cancer cells after 48 hrs
# Format: functional
# Conditions: Cancer cell lines
SMILES,GI50 [µM],TGI [µM]
O=C1Nc2cccc(Cl)c2/C1=C\c1c(Cl)[nH]c2c1ccc1ccccc12,3.63,17.8
CN(C)c1ccc2[nH]c(Cl)c(/C=C3/C(=O)Nc4ccc(Cl)cc43)c2c1,1.58,–
COc1cc2c(/C=C3/C(=O)N(C)c4ccc(O)cc43)c[nH]c2cc1C,3.72,24
Cc1cc2c(cc1O)/C(=C\c1c(Cl)[nH]c3c1ccc1ccccc13)C(=O)N2,8.71,24.6
COc1cc2c(/C=C3/C(=O)Nc4cc(Cl)ccc43)c(Cl)[nH]c2cc1C,0.12,–
CN(C)c1ccc2[nH]c(Cl)c(/C=C3/C(=O)N(C)c4ccc(O)cc43)c2c1,6.03,33.9
COc1cc2c(cc1C)NC(=O)/C2=C/c1c(Cl)[nH]c2c1ccc1ccccc12,0.31,–

# Same assay, conditions: Cancer cell lines, read-out: LC50 (the source's name)
row,SMILES,CC50 [µM]
1,O=C1Nc2ccc(F)cc2/C1=C\c1c(Cl)[nH]c2c1ccc1ccccc12,51.3
2,O=C1Nc2cccc(Cl)c2/C1=C\c1c(Cl)[nH]c2c1ccc1ccccc12,53.7
3,CN(C)c1ccc2[nH]c(Cl)c(/C=C3/C(=O)Nc4ccc(Cl)cc43)c2c1,18.2
4,COc1cc2c(/C=C3/C(=O)N(C)c4ccc(O)cc43)c[nH]c2cc1C,67.6
5,Cc1cc2c(cc1O)/C(=C\c1c(Cl)[nH]c3c1ccc1ccccc13)C(=O)N2,67.6
6,COc1cc2c(/C=C3/C(=O)Nc4cc(Cl)ccc43)c(Cl)[nH]c2cc1C,41.7
7,CN(C)c1ccc2[nH]c(Cl)c(/C=C3/C(=O)N(C)c4ccc(O)cc43)c2c1,85.1
8,COc1cc2c(/C=C3/C(=O)Nc4ccccc43)c[nH]c2cc1C,53.7

# Test system: not listed separately
# Assay: Growth inhibition of human colon cancer cells after 48 hrs
# Format: functional
# Conditions: Cancer cell lines
SMILES,GI50 [µM],TGI [µM]
O=C1Nc2cccc(Cl)c2/C1=C\c1c(Cl)[nH]c2c1ccc1ccccc12,4.9,17.4
CN(C)c1ccc2[nH]c(Cl)c(/C=C3/C(=O)Nc4ccc(Cl)cc43)c2c1,2.09,–
COc1cc2c(/C=C3/C(=O)N(C)c4ccc(O)cc43)c[nH]c2cc1C,2.95,24.6
Cc1cc2c(cc1O)/C(=C\c1c(Cl)[nH]c3c1ccc1ccccc13)C(=O)N2,6.61,20.9
COc1cc2c(/C=C3/C(=O)Nc4cc(Cl)ccc43)c(Cl)[nH]c2cc1C,0.17,–
CN(C)c1ccc2[nH]c(Cl)c(/C=C3/C(=O)N(C)c4ccc(O)cc43)c2c1,4.9,20.9

# Same assay, conditions: Cancer cell lines, read-out: LC50 (the source's name)
row,SMILES,CC50 [µM]
1,O=C1Nc2cccc(Cl)c2/C1=C\c1c(Cl)[nH]c2c1ccc1ccccc12,47.9
2,CN(C)c1ccc2[nH]c(Cl)c(/C=C3/C(=O)Nc4ccc(Cl)cc43)c2c1,22.9
3,Cc1cc2c(cc1O)/C(=C\c1c(Cl)[nH]c3c1ccc1ccccc13)C(=O)N2,61.7
4,COc1cc2c(/C=C3/C(=O)Nc4cc(Cl)ccc43)c(Cl)[nH]c2cc1C,25.7
5,CN(C)c1ccc2[nH]c(Cl)c(/C=C3/C(=O)N(C)c4ccc(O)cc43)c2c1,61.7

# Test system: not listed separately
# Assay: Growth inhibition of human leukemia cells after 48 hrs
# Format: functional
# Conditions: Leukemia cell
SMILES,GI50 [µM],TGI [µM]
O=C1Nc2cccc(Cl)c2/C1=C\c1c(Cl)[nH]c2c1ccc1ccccc12,5.5,25.7
CN(C)c1ccc2[nH]c(Cl)c(/C=C3/C(=O)Nc4ccc(Cl)cc43)c2c1,1.62,–
COc1cc2c(/C=C3/C(=O)N(C)c4ccc(O)cc43)c[nH]c2cc1C,3.47,36.3
Cc1cc2c(cc1O)/C(=C\c1c(Cl)[nH]c3c1ccc1ccccc13)C(=O)N2,3.31,38
COc1cc2c(/C=C3/C(=O)Nc4cc(Cl)ccc43)c(Cl)[nH]c2cc1C,0.14,–
CN(C)c1ccc2[nH]c(Cl)c(/C=C3/C(=O)N(C)c4ccc(O)cc43)c2c1,16.6,–
COc1cc2c(/C=C3/C(=O)Nc4ccccc43)c[nH]c2cc1C,0.09,–

# Same assay, conditions: Leukemia cell, read-out: LC50 (the source's name)
row,SMILES,CC50 [µM]
1,O=C1Nc2cccc(Cl)c2/C1=C\c1c(Cl)[nH]c2c1ccc1ccccc12,75.9
2,CN(C)c1ccc2[nH]c(Cl)c(/C=C3/C(=O)Nc4ccc(Cl)cc43)c2c1,91.2
3,COc1cc2c(/C=C3/C(=O)Nc4cc(Cl)ccc43)c(Cl)[nH]c2cc1C,58.9

# Test system: not listed separately
# Assay: Growth inhibition of human breast cancer cells after 48 hrs
# Format: functional
# Conditions: Cancer cell lines
SMILES,GI50 [µM],TGI [µM]
O=C1Nc2ccc(F)cc2/C1=C\c1c(Cl)[nH]c2c1ccc1ccccc12,0.4,–
O=C1Nc2cccc(Cl)c2/C1=C\c1c(Cl)[nH]c2c1ccc1ccccc12,5.01,19.9
CN(C)c1ccc2[nH]c(Cl)c(/C=C3/C(=O)Nc4ccc(Cl)cc43)c2c1,1.32,–
COc1cc2c(/C=C3/C(=O)N(C)c4ccc(O)cc43)c[nH]c2cc1C,2.75,16.2
Cc1cc2c(cc1O)/C(=C\c1c(Cl)[nH]c3c1ccc1ccccc13)C(=O)N2,3.72,19.1
COc1cc2c(/C=C3/C(=O)Nc4cc(Cl)ccc43)c(Cl)[nH]c2cc1C,0.15,–
CN(C)c1ccc2[nH]c(Cl)c(/C=C3/C(=O)N(C)c4ccc(O)cc43)c2c1,3.8,30.9
COc1cc2c(/C=C3/C(=O)Nc4ccccc43)c[nH]c2cc1C,0.12,–

# Same assay, conditions: Cancer cell lines, read-out: LC50 (the source's name)
row,SMILES,CC50 [µM]
1,O=C1Nc2ccc(F)cc2/C1=C\c1c(Cl)[nH]c2c1ccc1ccccc12,70.8
2,O=C1Nc2cccc(Cl)c2/C1=C\c1c(Cl)[nH]c2c1ccc1ccccc12,67.6
3,CN(C)c1ccc2[nH]c(Cl)c(/C=C3/C(=O)Nc4ccc(Cl)cc43)c2c1,55
4,COc1cc2c(/C=C3/C(=O)N(C)c4ccc(O)cc43)c[nH]c2cc1C,63.1
5,Cc1cc2c(cc1O)/C(=C\c1c(Cl)[nH]c3c1ccc1ccccc13)C(=O)N2,69.2
6,COc1cc2c(/C=C3/C(=O)Nc4cc(Cl)ccc43)c(Cl)[nH]c2cc1C,39.8
